What was measured:
Experiment in all cases: Cell proliferation WST-1 assay, single dose (Example 4)
Format in all cases: cell-based
Settings in all cases: 100 μM, 48 hours
[1] = tested on: A375 melanoma cells
Experimental: (§1) In addition, compounds were tested in RPMI-7951 cells, which also contain mutated BRaf and are resistant to BRaf inhibitors due to the overexpression of MAP3K8 (the gene encoding COT/Tp12) that provides an alternative mechanism to indirectly or directly activate ERK proteins. […] For comparison, HeLa cervical carcinoma and Jurkat T-cell leukemia cells, which are p53 defective cancer cell lines but contain no known activating mutations in the ERK pathway, were studied. […] Cell proliferation was evaluated by water soluble tetrazolium-1 (WST-1) assay as previously described. Briefly, cells (˜5000/well) were seeded in 96 well plates, allowed to recover for 16-20 hours, and then treated with the indicated test compound for 48 hours. After incubation, WST-1 reagent was added and absorbance was read at 450 nm with background subtraction taken at 650 nm. Values were normalized to the control (DMSO only treated) cells.

[2] = tested on: HL-60 leukemic cells
Experimental: as §1

[3] = tested on: HeLa cervical carcinoma cells
Experimental: as §1

[4] = tested on: Jurkat T-cell leukemia cells
Experimental: as §1

[5] = tested on: RPMI-7951 melanoma cells
Experimental: as §1

[6] = tested on: SK-MEL-28 melanoma cells
Experimental: as §1

Row | SMILES | Cell Viability (% of Vehicle) A375 [1] | Cell Viability (% of Vehicle) HL-60 [2] | Cell Viability (% of Vehicle) HeLa [3] | Cell Viability (% of Vehicle) Jurkat [4] | Cell Viability (% of Vehicle) RPMI-7951 [5] | Cell Viability (% of Vehicle) SK-MEL-28 [6]
1 | NCCN1C(=O)S/C(=C\c2ccccc2)C1=O [Compound 30a, (Z)-3-(2-aminoethyl)-5-benzylidenethiazolidine-2,4-dione] | 82 ± 9 % of Vehicle | 28 ± 20 % of Vehicle | 82 ± 10 % of Vehicle | 88 ± 4 % of Vehicle | 89 ± 17 % of Vehicle | 88 ± 7 % of Vehicle
2 | CCOc1ccc(/C=C2\SC(=O)N(CCNC)C2=O)cc1 [Compound 23a, (Z)-5-(4-ethoxybenzylidene)-3-(2-(methylamino)ethyl)thiazolidine-2,4-dione] | 95 ± 2 % of Vehicle | 17 ± 11 % of Vehicle | 85 ± 4 % of Vehicle | 83 ± 6 % of Vehicle | 54 ± 7 % of Vehicle | 91 ± 1 % of Vehicle
3 | CCOc1ccc(/C=C2\SC(=S)N(CCN)C2=O)cc1 [Compound 9, (Z)-3-(2-aminoethyl)-5-(4-ethoxybenzylidene)-2-thioxothiazolidin-4-one] | 21 ± 10 % of Vehicle | 7.9 ± 3 % of Vehicle | 26 ± 6 % of Vehicle | 52 ± 4 % of Vehicle | 3.3 ± 2 % of Vehicle | 45 ± 7 % of Vehicle
4 | CCOc1ccc(/C=C2\SC(=O)N(Cc3ccc([N+](=O)[O-])cc3)C2=O)cc1 [Compound 28n, (Z)-5-(4-ethoxybenzylidene)-3-(4-nitrobenzyl)thiazolidine-2,4-dione] | 117 ± 3 % of Vehicle | 97 ± 23 % of Vehicle | 97 ± 9 % of Vehicle | 101 ± 9 % of Vehicle | 119 ± 13 % of Vehicle | 104 ± 3 % of Vehicle
5 | CCOc1ccc(/C=C2\SC(=O)N(C(C)CN)C2=O)cc1 (stereo not drawn) [Compound 22c, (Z)-3-(1-aminopropan-2-yl)-5-(4-ethoxybenzylidene)thiazolidine-2,4-dione] | 13 ± 2 % of Vehicle | 8.1 ± 3 % of Vehicle | 45 ± 7 % of Vehicle | 54 ± 10 % of Vehicle | 22 ± 3 % of Vehicle | 28 ± 4 % of Vehicle
6 | CCOc1ccc(/C=C2\SC(=O)NC2=O)cc1 [Compound 2, (Z)-5-(4-ethoxybenzylidene)thiazolidine-2,4-dione] | 110 ± 10 % of Vehicle | 103 ± 16 % of Vehicle | 98 ± 13 % of Vehicle | 104 ± 4 % of Vehicle | 144 ± 2 % of Vehicle | 103 ± 1 % of Vehicle
7 | CCOc1ccc(/C=C2\SC(=O)N(CCNC(=O)OCc3ccccc3)C2=O)cc1 [Compound 26d, (Z)-benzyl (2-(5-(4-ethoxybenzylidene)-2,4-dioxothiazolidin-3-yl)ethyl)carbamate] | 103 ± 3 % of Vehicle | 85 ± 27 % of Vehicle | 98 ± 6 % of Vehicle | 112 ± 5 % of Vehicle | 54 ± 6 % of Vehicle | 97 ± 1 % of Vehicle
8 | CCOc1ccc(/C=C2\CC(=O)N(CCN)C2=O)cc1 [Compound 13, (E)-1-(2-aminoethyl)-3-(4-ethoxybenzylidene)pyrrolidine-2,5-dione] | 29 ± 3 % of Vehicle | 58 ± 28 % of Vehicle | 75 ± 2 % of Vehicle | 100 ± 10 % of Vehicle | 19 ± 5 % of Vehicle | 65 ± 4 % of Vehicle
9 | NCCN1C(=O)S/C(=C\c2ccccc2OCc2ccccc2)C1=O [Compound 30k, (Z)-3-(2-aminoethyl)-5-(2-(benzyloxy)benzylidene)thiazolidine-2,4-dione] | 0.6 ± 0.03 % of Vehicle | 8.3 ± 3.4 % of Vehicle | 0.6 ± 0.1 % of Vehicle | 1.5 ± 0.1 % of Vehicle | 0.9 ± 0.1 % of Vehicle | 0.6 ± 0.04 % of Vehicle
10 | CCOc1ccc(/C=C2\CCN(CCN)C2=O)cc1 [Compound 17, (E)-1-(2-aminoethyl)-3-(4-ethoxybenzylidene)pyrrolidin-2-one] | 95 ± 2 % of Vehicle | 73 ± 9 % of Vehicle | 89 ± 4 % of Vehicle | 92 ± 2 % of Vehicle | 96 ± 3 % of Vehicle | 79 ± 6 % of Vehicle
11 | CCOc1ccc(/C=C2\SC(=O)N(CC(C)N)C2=O)cc1 (stereo not drawn) [Compound 22b, (Z)-3-(2-aminopropyl)-5-(4-ethoxybenzylidene)thiazolidine-2,4-dione] | 25 ± 4 % of Vehicle | 7.3 ± 3 % of Vehicle | 49 ± 7 % of Vehicle | 58 ± 10 % of Vehicle | 16 ± 1 % of Vehicle | 32 ± 4 % of Vehicle
12 | CCOc1ccc(/C=C2\SC(=O)N(Cc3ccccc3)C2=O)cc1 [Compound 28i, (Z)-3-benzyl-5-(4-ethoxybenzylidene)thiazolidine-2,4-dione] | 110 ± 4 % of Vehicle | 65 ± 1 % of Vehicle | 95 ± 4 % of Vehicle | 105 ± 4 % of Vehicle | 114 ± 20 % of Vehicle | 90 ± 3 % of Vehicle
13 | CCOc1ccc(/C=C2\SC(=O)N(CCNS(C)(=O)=O)C2=O)cc1 [Compound 27a, (Z)—N-(2-(5-(4-ethoxybenzylidene)-2,4-dioxothiazolidin-3-yl)ethyl)methanesulfonamide] | 94 ± 2 % of Vehicle | 82 ± 44 % of Vehicle | 82 ± 1 % of Vehicle | 85 ± 3 % of Vehicle | 68 ± 3 % of Vehicle | 87 ± 2 % of Vehicle
14 | CCOc1ccc(/C=C2\SC(=O)N(Cc3cccnc3)C2=O)cc1 [Compound 28k, (Z)-5-(4-ethoxybenzylidene)-3-(pyridin-3-ylmethyl)thiazolidine-2,4-dione] | 105 ± 4 % of Vehicle | 65 ± 12 % of Vehicle | 80 ± 2 % of Vehicle | 98 ± 2 % of Vehicle | 102 ± 2 % of Vehicle | 79 ± 4 % of Vehicle
15 | CC(C)COc1ccccc1/C=C1\SC(=O)N(CCN)C1=O [Compound 30j, (Z)-3-(2-aminoethyl)-5-(2-isobutoxybenzylidene)thiazolidine-2,4-dione] | 0.8 ± 0.02 % of Vehicle | 9.5 ± 3.4 % of Vehicle | 0.8 ± 0.1 % of Vehicle | 1.8 ± 0.1 % of Vehicle | 1.0 ± 0.04 % of Vehicle | 1.0 ± 0.1 % of Vehicle

From US9115122B2, “Non-ATP dependent inhibitors of extracellular signal-regulated kinase (ERK)” (UNIVERSITY OF MARYLAND, BALTIMORE, priority 2012, dated 2015)
